In the supplement of paper PMC10307832:

Key:
Assay in all cases: relative viability (nuclei count vs DMSO), 5 days (fraction); higher = more cells survive
[1] = compound: C1=CC2=C(C=C(C(=C2N=C1)O)N=NC3=CC4=C(C=C3)C=C(C=C4)S(=O)(=O)O)S(=O)(=O)O + NC(=O)Nc1cc(-c2cccc(F)c2)sc1C(=O)N[C@H]1CCCNC1 [AZD7762] (partner 0.2 µM)
Summary of the method: (§1)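 Cells from lung cancer lines were seeded into 1536-well plates and, one day later, dosed by pin tool. Treatments were either a single drug or a fixed dose of an anchor drug with five library-drug doses (not always all listed) in √10 steps. After 5 days, nuclei were stained in a one-step fixation (final 0.05% Triton X-100, 1% formaldehyde, 1 ug/ml Hoechst) and counted on 4× images, and relative viability is the treated-to-vehicle nuclei ratio, as the median of duplicate plates.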

[2] = compound: C1=CC2=C(C=C(C(=C2N=C1)O)N=NC3=CC4=C(C=C3)C=C(C=C4)S(=O)(=O)O)S(=O)(=O)O + O=C(c1cc(Cc2n[nH]c(=O)c3ccccc23)ccc1F)N1CCN(C(=O)C2CC2)CC1 [Olaparib] (partner 8 µM)
Summary of the method: as §1

[3] = compound: O=C(NC1CCNCC1)c1n[nH]cc1NC(=O)c1c(Cl)cccc1Cl [AT-7519] + COc1cc2c(Oc3ccc(NC(=O)C4(C(=O)Nc5ccc(F)cc5)CC4)cc3F)ccnc2cc1OCCCN1CCOCC1 [Foretinib] (partner 0.25 µM)
Summary of the method: as §1

[4] = compound: O=C(NC1CCNCC1)c1n[nH]cc1NC(=O)c1c(Cl)cccc1Cl [AT-7519] + C[C@@H](Oc1cc(-c2cnn(C3CCNCC3)c2)cnc1N)c1c(Cl)ccc(F)c1Cl [Crizotinib] (partner 1 µM)
Summary of the method: as §1

Cell Line	relative viability ([1]; first compound 0.08 µM)	relative viability ([1]; first compound 0.253 µM)	relative viability ([1]; first compound 0.8 µM)	relative viability ([1]; first compound 2.53 µM)	relative viability ([1]; first compound 8 µM)	relative viability ([2]; first compound 0.08 µM)	relative viability ([2]; first compound 0.253 µM)	relative viability ([2]; first compound 0.8 µM)	relative viability ([2]; first compound 2.53 µM)	relative viability ([2]; first compound 8 µM)	relative viability ([3]; first compound 0.01 µM)	relative viability ([3]; first compound 0.03162 µM)	relative viability ([3]; first compound 1 µM)	relative viability ([4]; first compound 0.01 µM)	relative viability ([4]; first compound 0.03162 µM)	relative viability ([4]; first compound 0.3162 µM)	relative viability ([4]; first compound 1 µM)	relative viability ([3]; first compound 0.3162 µM)
201T	0.691	0.652	0.56	0.632	0.634	0.846	0.82	0.871	0.852	0.832	1.2	1.05	0.809	1.04	1.1	1.03	1.09	–
A549	–	–	–	–	–	0.469	0.331	0.299	0.313	0.135	0.925	0.984	0.845	0.635	0.867	0.55	0.25	0.852
A-427	0.823	0.816	0.767	0.822	0.743	0.727	0.763	0.709	0.825	0.736	1.16	0.968	0.384	0.931	0.823	0.964	0.576	1.06
ABC-1	0.741	–	0.831	0.691	0.667	0.634	0.762	0.754	0.684	0.916	0.937	1.09	0.541	1.06	1.35	0.591	0.183	0.962
BEN	0.694	0.749	0.729	0.77	0.557	0.868	1.13	1.05	1.27	0.974	0.719	0.636	0.8	0.897	0.754	0.985	0.83	0.922
CAL-12T	0.621	0.6	0.61	0.635	0.601	0.85	0.678	0.648	0.681	0.74	1.17	1.19	0.178	0.562	0.537	0.201	0.16	0.814
COR-L23	–	–	–	–	–	0.308	0.344	0.35	0.394	0.296	1.19	0.799	0.507	0.639	0.632	0.653	0.132	0.992
COR-L 105	–	–	–	–	–	0.676	0.62	0.732	0.701	0.83	1.17	1.01	0.525	0.823	0.784	0.469	0.289	1.2
Calu-6	–	–	–	–	–	0.55	0.546	0.55	0.58	0.658	0.903	0.917	0.641	0.928	0.855	0.677	0.141	0.865
ChaGo-K-1	0.933	0.82	0.845	0.892	0.721	0.445	0.405	0.438	0.422	0.341	0.931	0.845	0.733	1.08	1.12	0.792	0.743	0.967
EBC-1	–	–	–	–	–	0.808	0.634	0.694	0.758	0.732	0.101	0.106	0.0905	0.198	0.228	0.191	0.153	0.0999
EKVX	0.836	0.78	0.61	0.702	0.702	1.02	0.77	0.904	0.822	0.955	0.75	0.902	0.773	0.933	0.85	0.699	0.894	0.996
EMC-BAC-2	1.04	1.1	1.09	1.14	0.995	0.504	0.485	0.493	0.489	0.465	0.977	0.998	0.794	0.766	0.744	0.746	0.881	1.02
EPLC-272H	0.204	0.212	0.177	0.311	0.177	0.855	0.683	0.722	1	0.808	0.753	0.512	0.28	0.896	0.918	0.809	0.934	0.622
H3255	0.893	0.881	0.89	0.939	0.899	0.6	0.571	0.551	0.638	0.587	0.901	0.876	0.794	0.942	0.838	0.849	0.756	0.906
HARA	0.384	0.261	0.267	0.362	0.469	0.959	0.797	0.697	0.741	0.764	1.07	0.638	0.591	1.03	1.1	0.974	0.786	0.906
HCC-15	1.32	1.25	1.23	1.18	1.15	0.879	0.682	0.714	0.698	0.727	1.11	0.941	0.403	0.864	0.718	0.741	0.502	0.914
HCC-44	1.01	1.03	0.997	1.05	1.04	1.02	0.945	0.956	0.982	0.933	–	–	–	0.773	0.781	0.903	0.778	–
HCC-78	0.725	0.628	0.675	0.657	0.591	0.971	0.908	0.733	0.801	0.811	0.564	0.563	0.575	0.33	0.324	0.331	0.42	0.597
